Tests used:
[1] = Isothermal titration calorimetry (ITC), F^− recognition; type: binding; conditions: for K1 (association constant) / ΔG1 / K2 (association constant, second binding process) / ΔG2: X^− = F^−, DMSO, 298 K
Experimental: (§1) Isothermal titration calorimetry (ITC) studies were conducted on a MICROCAL VP-ITC ultra-sensitive isothermal titration microcalorimeter. The VP-ITC unit, with a precise temperature control set at 25.0±0.1° C., directly measured heat evolved or absorbed in solution as a result of […] of reactant. For control, a reference cell was filled with dimethyl sulfoxide (DMSO). Titrations were run at 25° C.
(§2) Before the experiment, all the samples were degassed at 25° C. for 10 minutes us the THERMOVAC (a vacuum thermostating system). Each of 40 injections of 6 μL of a halide solution was delivered into a solution (1 mM) of reagent LS over 12 seconds by a syringe spinning at 270 rpm, with a 240 second equilibration time between injections. The instrument was controlled by MICROCAL OBSERVER software comprising a 16-bit A/D converter board for data acquisition, and a second interface board for calorimetric control. Heats of dilution were taken into account using data from control experiments, in which DMSO was injected into reagent LS in DMSO solution.
From these experiments, it has been confirmed that a 1:[…] (reagent LS:F^− anion) type of stoichiometry occurs during F^− titration. Initially, π-anion-π interaction takes place, at concentrations up to one molar equivalent of F^− ion. At concentrations greater than one equivalent of F^−, the NH proton becomes directly involved in a second binding process through hydrogen bonding, a conclusion which is supported by the ^1H NMR experiments described above. The association constants for these two processes have been determined as follows: K1=4.11 10^4 M^−1 and K2=2.69 10^4 M^−1. […]

[2] = Isothermal titration calorimetry (ITC), Cl^− recognition; type: binding; conditions: for K1 (association constant) / ΔG1: X^− = Cl^−, ITC, DMSO, 298 K
Experimental: as §1, §2
(§3) Using these characteristic ITC patterns, one could determine whether a given test solution contains F^− only or, alternatively, whether the test solution contains is a mixture of F^− with another halide anion.
In addition to the above species, the same experimental procedure was followed with control reagent CR.

[3] = Visual color change and UV/Visible spectroscopy during F^− titration; conditions: for visible color change during F^− titration: solvents with up to 15% H2O, orange ≦5 equiv, pink >5 equiv F^−
Excerpt: (§4) Unless otherwise indicated, the following procedure was used for all examples involving titration experiments. Generally, titrant solutions comprising the fluoride receptor reagents (e.g., reagents N1, SR, and LR) were maintained at a concentration of 10 μm. Titrand solutions containing fluoride anion were 30 times more concentrated (e.g., 300 μm) to minimize dilution effects during titration. Unless otherwise indicated, the solvent for all solutions was dimethyl sulfoxide (DMSO).
(§5) Several experiments were conducted to observe the visible color changes that occur when NDI-based receptor reagents N1, SR, and LR were titrated with solutions containing F^− ions. Titrations were carried out using F^− in a number of solvents, including aqueous dimethyl sulfoxide (DMSO), dimethylformamide (DMF), dimethylacetamide (DMAc), acetonitrile, acetone, and tetrahydrofuran, with each solution containing up to 15% of H2O. Otherwise, the titrations followed the standard titration procedure outlined above.
(§6) As indicated above, UV/Visible light (UV/Vis) spectra were recorded on a PerkinElmer Lambda-25 UV/Vis spectrophotometer. For each experiment, receptor N1, SR, and CR concentrations were maintained at 10 μM. Titration of the F^− ion was conducted using the standard titration procedure outlined above.

[4] = Visual color change and UV/Visible spectroscopy during titration with other anions
Excerpt: as §4, §5, §6
Similarly, FIG. 5, panel (c) is a representation of the data obtained when receptor reagent N1 was titrated with various other […], including Cl^−, Br^−, I^−, NO3^−, acetate anion (AcO^−), and H2PO4^−.

[5] = Isothermal titration calorimetry (ITC), Br^− recognition; type: binding; conditions: solution with DMSO
Experimental: as §1, §2, §3

[6] = Isothermal titration calorimetry (ITC), I^− recognition; type: binding; conditions: solution with DMSO
Experimental: as §1, §2, §3

[7] = Fluorescence spectroscopy during F^− titration; conditions: for selectivity for F^− over other halide ions: color and emission spectra, Cl^−, Br^−, I^− up to 30 molar equivalents, DMSO
Excerpt: as §4
Fluorescence spectroscopy was introduced to determine the sensitivity of NDI-based F^− ion sensors at very low concentrations. Fluorescence spectra were collected on a HORIBA JOBIN YVON FLUOROMAX-4 spectrofluorometer.

[8] = Cyclic voltammetry; type: physicochemical; conditions: 1 mM in 0.1 M TBAPF6/DMF, Ag/AgCl reference, 100 mV/s, room temperature
Experimental: Cyclic voltammetry (CV) was conducted on a PRINCETON APPLIED RESEARCH (PAR) VERSASTAT-3-200 potentiostat/galvanostat instrument using a standard electrochemical cell, consisting of a Pt-disk working electrode, Pt-wire counter electrode, and Ag/AgCl (3 N aq. NaCl) reference electrode. CV was recorded at 1 mM of reagent N1 in 0.1 M TBAPF6/DMF supporting electrolyte solution at room temperature at 100 mV/s scan rate (FIG. 11).

[9] = Fluoride anion sensing in toothpastes (UV/Vis); conditions: 10 μM receptor, wet DMSO
Experimental: For the detection of F^− ion in toothpastes, small samples (1 gram) of each of two toothpastes (COLGATE anticavity fluoride toothpaste and ORAJEL toddler fluoride-free toothpaste) were extracted separately in 2 mL of aqueous DMSO. The COLGATE toothpaste contained 0.24% (w/v) NaF. Each resulting suspension was filtered to obtain colorless clear solution, which were separately added to 10 μM SR solutions.
The black trace represents SR without toothpaste; the light trace, SR with anticavity adult toothpaste containing 0.24% NaF; and the medium trace, SR with F^− free toddler toothpaste.

| K2 (association constant, second binding process) [1] [M⁻¹] | Structure (SMILES) | K1 (association constant) [1] [M⁻¹] | ΔG1 [1] [kcal/M] | K1 (association constant) [2] [M⁻¹] | ΔG1 [2] [kcal/M] | ΔG2 [1] [kcal/M] | selectivity for F^− over other halide ions [7] | visible color change during F^− titration [3] | further results |
| --- | --- | --- | --- | --- | --- | --- | --- | --- | --- |
|  | O=C(Nc1cccc(NC(=O)c2cccc(C(=O)Nc3cccc(NC(=O)c4ccncc4)c3)c2)c1)c1ccncc1 [CR, reference compound] | 259 | -3.28 | 100 | -2.71 |  |  |  | UV/Vis spectroscopic / colorimetric response to F^− titration ([3]; receptor 10 μM, DMSO): virtually no colorimetric response; visible color change in response to anions ([4]; any anion): did not change color in response to any anion |
| 26900 | O=C(Nc1cccc(NC(=O)c2cccc(C(=O)Nc3cccc(NC(=O)c4ccc(N5C(=O)c6ccc7c8c(ccc(c68)C5=O)C(=O)N(c5ccncc5)C7=O)cc4)c3)c2)c1)c1ccc(N2C(=O)c3ccc4c5c(ccc(c35)C2=O)C(=O)N(c2ccncc2)C4=O)cc1 [LR] | 41100 | -6.29 | 319 | -3.42 | -6.04 | excellent selectivity | immediately changed color in a distinct two-step pattern | F^− binding in presence of excess Cl^− ion ([1]; excess of Cl^−): binds F^− selectively; association constant Ka ([2]; Cl^−, solution with DMSO): 319 M⁻¹; association constant Ka [5]: 145 M⁻¹; association constant Ka [6]: 105 M⁻¹ |
|  | O=C1c2ccc3c4c(ccc(c24)C(=O)N1c1ccncc1)C(=O)N(c1ccncc1)C3=O [N1] | 8470 | -5.36 | 53 | -2.35 |  |  | immediately changed color in a distinct two-step pattern | increase of the 465 nm emission peak ([7]; receptor 10 μM in DMSO, 30 equiv. of F^−): 5.5 fold; optical response to other anions ([4]; Cl^−, Br^−, I^−, NO3^−, AcO^−, H2PO4^−, UV/Vis): did not show any optical response; E1 ½, one-electron reduction to radical anion [8]: −342 mV; E2 ½, reduction to dianion [8]: −804 mV |
| 442000 | O=C(Nc1cccc(N2C(=O)c3ccc4c5c(ccc(c35)C2=O)C(=O)N(c2ccncc2)C4=O)c1)c1cccc(C(=O)Nc2cccc(N3C(=O)c4ccc5c6c(ccc(c46)C3=O)C(=O)N(c3ccncc3)C5=O)c2)n1 [SR] | 9.03e+08 | -12.20 | 1730 | -4.41 | -7.70 | excellent selectivity | immediately changed color in a distinct two-step pattern | amplification of a new peak at 465 nm ([7]; receptor 1 nM in DMSO, F^− 30 nM, 381 nm excitation): 20 fold; color change with F^− in the presence of Cl^− ([3]; titrated with F^− in the presence of 30 molar equivalents of Cl^−): showed the characteristic two-step color change associated with F^− even in the presence of Cl^−; optical response to Cl^− alone ([4]; Cl^−, 30 molar equivalents): no optical response; response to F^− containing toothpaste solution (COLGATE, 0.24% NaF) [9]: turned light orange; response to F^−-free ORAJEL toothpaste [9]: did not change the spectrum of the receptor |

From patent US8541240B2, “Colorimetric and fluorimetric fluoride sensing” (Florida State University Research Foundation, Inc., priority 2010, dated 2013)
